Data published in patent publication US20220332700A1, “NOVEL APOPTOSIS SIGNAL-REGULATING KINASE 1 INHIBITORS” (MANKIND PHARMA LTD, priority 2019, published 2022).

Columns and labels:
Human ASK1 = molecular target: T1, Human ASK1 (Homo sapiens, UniProt Q99683); assay: ASK1 Cell Based Assay (phospho p38 read out in hASK1 transfected HEK293T-AP1 cells); details: HEK293T-AP1 cells, 1 mM hydrogen peroxide, phospho p38; read-out: Cell Based Assay IC50
T1 construct: expressed in transfected cells; host or cells: HEK293T-AP1
T1 sequence (Q99683 1-1374): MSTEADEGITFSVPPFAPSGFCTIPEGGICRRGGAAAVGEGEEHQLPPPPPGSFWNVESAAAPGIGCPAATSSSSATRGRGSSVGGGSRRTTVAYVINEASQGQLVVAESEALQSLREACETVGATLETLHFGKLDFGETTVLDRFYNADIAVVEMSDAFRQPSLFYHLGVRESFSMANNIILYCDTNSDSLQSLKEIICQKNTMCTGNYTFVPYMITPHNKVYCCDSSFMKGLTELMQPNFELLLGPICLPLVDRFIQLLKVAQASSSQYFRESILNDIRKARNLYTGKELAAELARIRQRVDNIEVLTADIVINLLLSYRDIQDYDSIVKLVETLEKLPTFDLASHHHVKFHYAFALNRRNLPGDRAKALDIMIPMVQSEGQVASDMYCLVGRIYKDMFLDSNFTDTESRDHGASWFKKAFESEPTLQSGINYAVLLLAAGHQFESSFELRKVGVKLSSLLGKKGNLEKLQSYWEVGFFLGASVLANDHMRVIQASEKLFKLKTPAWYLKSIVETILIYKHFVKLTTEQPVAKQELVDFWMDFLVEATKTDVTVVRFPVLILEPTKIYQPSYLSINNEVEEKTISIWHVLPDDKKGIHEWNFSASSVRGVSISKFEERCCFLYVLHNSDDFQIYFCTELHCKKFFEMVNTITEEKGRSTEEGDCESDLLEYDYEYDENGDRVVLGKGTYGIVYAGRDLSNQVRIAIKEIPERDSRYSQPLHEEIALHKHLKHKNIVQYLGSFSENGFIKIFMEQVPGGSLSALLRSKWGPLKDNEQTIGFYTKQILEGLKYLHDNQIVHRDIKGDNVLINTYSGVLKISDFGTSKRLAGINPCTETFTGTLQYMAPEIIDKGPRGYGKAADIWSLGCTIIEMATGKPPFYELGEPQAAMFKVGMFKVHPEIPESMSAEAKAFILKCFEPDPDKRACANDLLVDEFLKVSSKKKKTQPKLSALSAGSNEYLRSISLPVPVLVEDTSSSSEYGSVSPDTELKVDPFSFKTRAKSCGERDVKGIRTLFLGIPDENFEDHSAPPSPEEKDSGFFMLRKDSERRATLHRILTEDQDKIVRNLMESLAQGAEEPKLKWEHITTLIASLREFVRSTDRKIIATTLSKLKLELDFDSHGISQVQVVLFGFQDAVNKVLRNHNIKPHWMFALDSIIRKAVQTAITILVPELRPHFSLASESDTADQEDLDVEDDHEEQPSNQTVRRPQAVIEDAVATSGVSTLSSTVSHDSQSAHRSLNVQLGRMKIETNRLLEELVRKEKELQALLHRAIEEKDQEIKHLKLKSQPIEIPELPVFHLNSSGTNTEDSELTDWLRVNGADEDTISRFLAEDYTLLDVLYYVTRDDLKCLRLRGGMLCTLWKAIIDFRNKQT
Procedure: HEK293T-AP1 cells were seeded at a density of 20,000 cells per well in a poly-d-lysine coated 96 well microplate. Next day, cells were transfected with hASK1-pcDNA3.1 vector using lipofectamine 3000. After 24 hours of transfection, cells were treated with compounds for 24 hours in assay medium. DMSO was used as a vehicle control with a final DMSO concentration of 0.2%. On 4th day, medium was discarded and cells were activated with 1 mM hydrogen peroxide for 1 hour in the presence of compounds. Cells were lysed for 1 hour with 1× lysis buffer on a shaker at 100 rpm. Sixteen microliters of lysate was collected into a 384 well small volume plate. Phospho p38 levels in the lysate was detected by using CisbioPhospho-p38 MAPK (Thr180/Tyr182) #64P38PEG.Four microliters of phospho p38 antibodies labelled with europium cryptate and d2 acceptor, were added to the lysate and incubated overnight. TR-FRET was measured at an excitation of 335 nm and emission was measured at 615 nm and 665 nm in BMG FLUOstar multimode reader.
Compounds were assessed for ASK1 inhibition based on phospho p38 read out. […] Background control values were susbtracted from vehicle control as well as from compound treated wells.

recombinant ASK1 = molecular target: T2, recombinant ASK1 (Homo sapiens, UniProt Q99683); assay: ASK1 Biochemical Assay (HTRF KinEASE-STK S3); details: ATP 100 μM; read-out: Biochemical Assay IC50
T2 construct: purchased Carna Biosciences
How it was run: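 Recombinant ASK1 (5 ng) preincubated with compound 1 h at 23 °C in MOPS pH 7 buffer with Mg-acetate, DTT, NP40, glycerol, BSA and 1% DMSO. Inhibition calculated against vehicle after substrate-blank subtraction.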

Row | SMILES | IC50 (Human ASK1) [µM] | IC50 (recombinant ASK1) [µM]
1 | CC(CO)n1cnnc1-c1cccc(N2CCN(c3ccc(S(C)(=O)=O)cc3)C2=O)n1 (stereo not drawn) [Example 1057, 1-(6-(4-(1-hydroxypropan-2-yl)-4H-1,2,4-triazol-3-yl)pyridin-2-yl)-3-(4-(methylsulfonyl)phenyl)imidazolidin-2-one] | > 1 | < 0.1
2 | CC(C)n1cnnc1-c1cccc(N2CCN(c3ccc(S(C)(=O)=O)c(C4CC4)c3)C2=O)n1 [Example 1059, 1-(3-cyclopropyl-4-(methylsulfonyl)phenyl)-3-(6-(4-isopropyl-4H-1,2,4-triazol-3-yl)pyridin-2-yl)imidazolidin-2-one] | > 1 | < 0.1
3 | CC(n1cnnc1-c1cccc(N2CCN(c3ccc(S(C)(=O)=O)cc3)C2=O)n1)C(F)(F)F (stereo not drawn) [Example 1061, 1-(6-(4-(1,1,1-trifluoropropan-2-yl)-4H-1,2,4-triazol-3-yl)pyridin-2-yl)-3-(4-(methylsulfonyl)phenyl)imidazolidin-2-one] | > 1 | < 0.1
4 | CC(C)n1cnnc1-c1cccc(N2CCN(c3ccc(S(C)(=O)=O)c(N4CCCCC4)c3)C2=O)n1 [Example 1063, 1-(6-(4-isopropyl-4H-1,2,4-triazol-3-yl)pyridin-2-yl)-3-(4-(methylsulfonyl)-3-(piperidin-1-yl)phenyl)imidazolidin-2-one] | > 1 | < 0.1
5 | CC(C)n1cnnc1-c1cccc(N2CCN(c3ccc(C4CCOCC4)cc3)C2=O)n1 [Example 1066, 1-(4-(tetrahydro-2H-pyran-4-yl)phenyl)-3-(6-(4-isopropyl-4H-1,2,4-triazol-3-yl)pyridin-2-yl)imidazolidin-2-one] | > 1 | < 0.1
6 | CC(C)n1cnnc1-c1cccc(N2CCN(c3ccc(N4CCC(O)CC4)cc3)C2=O)n1 [Example 1067, 1-(4-(4-hydroxypiperidin-1-yl)phenyl)-3-(6-(4-isopropyl-4H-1,2,4-triazol-3-yl)pyridin-2-yl)imidazolidin-2-one] | > 0.1 | < 0.1
7 | CC1COCC(=O)N1c1ccc(N2CCN(c3cccc(-c4nncn4C(C)C)n3)C2=O)cc1 (stereo not drawn) [Example 1068, 4-(4-(3-(6-(4-isopropyl-4H-1,2,4-triazol-3-yl)pyridin-2-yl)-2-oxoimidazolidin-1-yl)phenyl)-5-methylmorpholin-3-one] | > 0.1 | < 0.1
8 | CC1COCCN1c1ccc(N2CCN(c3cccc(-c4nncn4C(C)C)n3)C2=O)cc1 (stereo not drawn) [Example 1069, 1-(6-(4-isopropyl-4H-1,2,4-triazol-3-yl)pyridin-2-yl)-3-(4-(3-methylmorpholino)phenyl)imidazolidin-2-one] | > 0.1 | < 0.1
9 | CC(C)n1cnnc1-c1cccc(N2CCN(c3ccc(S(=O)(=O)N4CCOCC4)cc3)C2=O)n1 [Example 1073, 1-(6-(4-isopropyl-4H-1,2,4-triazol-3-yl)pyridin-2-yl)-3-(4-(morpholinosulfonyl)phenyl)imidazolidin-2-one] | > 0.1 | < 0.1
10 | CC(C)n1cnnc1-c1cccc(N2CCN(c3ccc(N4CC5(COC5)C4)cc3)C2=O)n1 [Example 1074, 1-(4-(2-oxa-6-azaspiro[3.3]heptan-6-yl)phenyl)-3-(6-(4-isopropyl-4H-1,2,4-triazol-3-yl)pyridin-2-yl)imidazolidin-2-one] | > 0.1 | < 0.1
11 | CC(C)n1cnnc1-c1cccc(N2CCN(c3ccc(N4CCOCC4)c(F)c3)C2=O)n1 [Example 1075, 1-(3-fluoro-4-morpholinophenyl)-3-(6-(4-isopropyl-4H-1,2,4-triazol-3-yl)pyridin-2-yl)imidazolidin-2-one] | > 1 | < 0.1
12 | CC1CN(c2ccc(N3CCN(c4cccc(-c5nncn5C(C)C)n4)C3=O)cc2)C(=O)CO1 (stereo not drawn) [Example 1076, 4-(4-(3-(6-(4-isopropyl-4H-1,2,4-triazol-3-yl)pyridin-2-yl)-2-oxoimidazolidin-1-yl)phenyl)-6-methylmorpholin-3-one] | > 1 | < 0.1
13 | CC(C)n1cnnc1-c1cccc(N2CCN(c3ccc(C(=O)N4CCOCC4)cc3)C2=O)n1 [Example 1077, 1-(6-(4-isopropyl-4H-1,2,4-triazol-3-yl)pyridin-2-yl)-3-(4-(morpholine-4-carbonyl)phenyl)imidazolidin-2-one] | > 0.1 | < 0.1
14 | CC1CN(c2ccc(N3CCN(c4cccc(-c5nncn5C(C)C)n4)C3=O)cc2)CCO1 (stereo not drawn) [Example 1078, 1-(6-(4-isopropyl-4H-1,2,4-triazol-3-yl)pyridin-2-yl)-3-(4-(2-methylmorpholino)phenyl)imidazolidin-2-one] | > 0.1 | < 0.1
15 | CC(C)n1cnnc1-c1cccc(N2CCN(c3ccc(CN4CCOCC4)cc3)C2=O)n1 [Example 1080, 1-(6-(4-isopropyl-4H-1,2,4-triazol-3-yl)pyridin-2-yl)-3-(4-(morpholinomethyl)phenyl)imidazolidin-2-one] | > 1 | < 0.1
16 | CC(C)n1cnnc1-c1cccc(N2CCN(c3ccc(NC4CCOCC4)cc3)C2=O)n1 [Example 1081, 1-(6-(4-isopropyl-4H-1,2,4-triazol-3-yl)pyridin-2-yl)-3-(4-(tetrahydro-2H-pyran-4-ylamino)phenyl)imidazolidin-2-one] | > 0.1 | < 0.05
17 | CC(C)n1cnnc1-c1cccc(N2CCN(c3ccc(C(O)C(F)(F)F)cc3)C2=O)n1 (stereo not drawn) [Example 1083, 1-(4-(2,2,2-trifluoro-1-hydroxyethyl)phenyl)-3-(6-(4-isopropyl-4H-1,2,4-triazol-3-yl)pyridin-2-yl)imidazolidin-2-one] | > 1 | < 0.1
18 | CC(C)n1cnnc1-c1cccc(N2CCN(c3ccc(C4CCN(S(C)(=O)=O)CC4)cc3)C2=O)n1 [Example 1084, 1-(6-(4-isopropyl-4H-1,2,4-triazol-3-yl)pyridin-2-yl)-3-(4-(1-(methylsulfonyl)piperidin-4-yl)phenyl)imidazolidin-2-one] | > 1 | < 0.1
19 | CC(C)n1cnnc1-c1cccc(N2CCN(c3ccc(N4[C@H](C)COC[C@@H]4C)cc3)C2=O)n1 [Example 1085, 1-(6-(4-isopropyl-4H-1,2,4-triazol-3-yl)pyridin-2-yl)-3-(4-((3R,5S)-3,5-dimethylmorpholino)phenyl)imidazolidin-2-one] | > 0.1 | < 0.1
20 | CC(C)n1cnnc1-c1cccc(N2CCN(c3ccc(N4CCC(C#N)CC4)cc3)C2=O)n1 [Example 1087, 1-(4-(3-(6-(4-isopropyl-4H-1,2,4-triazol-3-yl)pyridin-2-yl)-2-oxoimidazolidin-1-yl)phenyl)piperidine-4-carbonitrile] | > 0.1 | < 0.1
21 | CC(C)NC1CN(c2ccc(N3CCN(c4cccc(-c5nncn5C(C)C)n4)C3=O)cc2)C1 [Example 1088, 1-(6-(4-isopropyl-4H-1,2,4-triazol-3-yl)pyridin-2-yl)-3-(4-(3-(isopropylamino)azetidin-1-yl)phenyl)imidazolidin-2-one] | > 1 | < 0.1
